Measurements reported in US11891601B2, “Method to enhance the transcription regulation of SUPT4H on genes containing repetitive nucleotide sequences” (National Yang-Ming University, priority 2018, dated 2024).

Test system: genes with lengthy repetitive nucleotide sequences (Q81-GFP, mutant HTT)
Assay: RT-qPCR of (CAG)n-GFP / HTT mRNA with SUPT4H siRNA knockdown plus tropolone
Assay type: cell-based
Conditions: together with SUPT4H siRNA; only in the genes with lengthy repetitive nucleotide sequences
Description: ST14A, Hdh^Q7/Q7 and Hdh^Q111/Q111 were maintained in DMEM (HyClone) supplemented with 15% fetal bovine serum at 33° C. with 5% CO2. ST14A^tet is a genetic engineered stable line, which integrated pTet-Off construct in the genome of ST14A cells and could trigger the expression of pTRE2-(CAG)n-eGFP plasmid in the absence of tetracycline. Lipofectamine 2000 (Invitrogen) transfection reagent was used to deliver siRNA or together with pTRE2-(CAG)n-eGFP into cells. 100 nM of SUPT4H siRNA (DHARMACON, ON-TARGET plus SMART pool, L-048866-01) and (DHARMACON, J-086342-10, 5′-[…]-3′ (SEQ ID NO: 1) and 5′-[…]-(SEQ ID NO: 2)) were used to knock-down SUPT4H expression in mice and rat cells, respectively.
For mammalian cells, total RNA was isolated using TRIzol reagent as per manufacturer's instruction (Invitrogen). […] The amount of cDNAs were quantified by StepOnePlus Real-Time qPCR system (Applied Biosystems) and analyzed by the Quantitative-Comparative CT (AACT) program. Rat SUPT4H, eGFP, mouse SUPT4H, and Mouse HTT were measured using corresponding primer sets as indicated in TABLE 3. snRNA U6 was included as a loading control. […]
Please refer to FIG. 6. […] A relative high signal of R-loops was detected in (CAG)7-eGFP, but this signal is not increased by tropolone. […] RNA was extracted and analyzed by real-time RT-qPCR to measure the quantity of (CAG)n-GFP, SUPT4H and snRNA U6. […]

O=c1cccccc1O [Tropolone] was tested, and the “level of transcriptional reduction by SUPT4H siRNA knockdown upon tropolone treatment” value was “further increased”.
